Measured values: ChEMBL document CHEMBL1201862, “PubChem BioAssay data set” (2004)
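Briefly, cells in 96-well plates were exposed to five compound concentrations for 48 h, and endpoints were estimated by linear interpolation. At the GI50, growth is halved.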 The source made the active and inactive calls. Cut-off read from the data, not from the text of the source: active = GI50 up to about 1.1 µM and inactive = higher.

What was measured:
Assay in all cases: inhibition of tumour cell growth, NCI panel, 48 h
[1] = system: A498
[2] = system: HL-60
[3] = system: LOX IMVI
[4] = system: HCT-15
[5] = system: SF-268
[6] = system: HT-29
[7] = system: A549
[8] = system: SK-MEL-28
[9] = system: SF-295
[10] = system: NCI-H460
[11] = system: HCT-116
[12] = system: SN12C
[13] = system: OVCAR-8
[14] = system: UO-31
[15] = system: EKVX
[16] = system: MOLT-4
[17] = system: SNB-19
[18] = system: TK-10
[19] = system: SR

| SMILES | GI50 [1] | GI50 [2] | GI50 [3] | GI50 [4] | GI50 [5] | GI50 [6] | GI50 [7] | GI50 [8] | GI50 [9] | GI50 [10] | GI50 [11] | GI50 [12] | GI50 [13] | GI50 [14] | GI50 [15] | GI50 [16] | GI50 [17] | GI50 [18] | GI50 [19] |
| --- | --- | --- | --- | --- | --- | --- | --- | --- | --- | --- | --- | --- | --- | --- | --- | --- | --- | --- | --- |
| CC1(C)CC23C4COC(=O)C2CCC1C3CC4=O (centres undefined) | 5.92 µM (inactive) | 3.06 µM (inactive) | 8.39 µM (inactive) | 6.52 µM | 10.6 µM (inactive) | 22.9 µM (inactive) | 19.1 µM (inactive) | 6.12 µM (inactive) | 19.8 µM (inactive) | 11.1 µM (inactive) | 6.71 µM (inactive) | 15.8 µM (inactive) | 10 µM (inactive) | 28.6 µM (inactive) | 26.7 µM (inactive) | 5.87 µM (inactive) | 28.3 µM (inactive) |  |  |
| CCCCSCC(NC(=O)/C=C/c1c(C)[nH]c(=O)[nH]c1=O)C(=O)OC (centres undefined) | 79.6 µM (inactive) | 76.6 µM (inactive) | 78.3 µM (inactive) | 148 µM | 23 µM (inactive) | 102 µM (inactive) | 124 µM (inactive) | 75 µM (inactive) | 101 µM (inactive) | 57.5 µM (inactive) | 30.3 µM (inactive) | 37.8 µM (inactive) | 37.9 µM (inactive) | 49.4 µM (inactive) | 34.2 µM (inactive) | 50.1 µM (inactive) | 29 µM (inactive) |  |  |
| CCCCc1ccc(-n2c3nc(=O)n(C)c(=O)c-3nc3ccccc32)cc1 | 18.7 µM (inactive) | 10.6 µM (inactive) |  | 6.35 µM | 10.1 µM (inactive) | 3.11 µM (inactive) | 5.61 µM (inactive) |  | 11.1 µM (inactive) | 4.03 µM (inactive) | 12.3 µM (inactive) | 7.35 µM (inactive) | 7.57 µM (inactive) | 12.5 µM (inactive) | 4.05 µM (inactive) | 15.3 µM (inactive) | 8.24 µM (inactive) | 13.9 µM (inactive) |  |
| C=CCNC1=NC(=O)C(CC(=O)Nc2cccc(Cl)c2)S1 (centres undefined) | > 100 µM (inactive) | > 100 µM (inactive) | > 100 µM (inactive) | > 100 µM | > 100 µM (inactive) | > 100 µM (inactive) | > 100 µM (inactive) | > 100 µM (inactive) | > 100 µM (inactive) | > 100 µM (inactive) |  | > 100 µM (inactive) | > 100 µM (inactive) | > 100 µM (inactive) | > 100 µM (inactive) | > 100 µM (inactive) | > 100 µM (inactive) | > 100 µM (inactive) |  |
| COC(=O)C1=C2CCC(=O)[C@@]2(C)C(OC(C)=O)C=CC1 (some centres undefined) | > 100 µM (inactive) | 29.5 µM (inactive) |  | 29.5 µM |  | > 100 µM (inactive) | > 100 µM (inactive) | > 100 µM (inactive) | 37.1 µM (inactive) | > 100 µM (inactive) | 24.5 µM (inactive) | > 100 µM (inactive) | 43 µM (inactive) | > 100 µM (inactive) | > 100 µM (inactive) | 35.9 µM (inactive) |  | > 100 µM (inactive) |  |
| COc1ccc(NC(=O)CC(=O)n2nc(C)c(/N=N/c3ccccc3C(=O)O)c2C)cc1 | > 100 µM (inactive) | > 100 µM (inactive) | > 100 µM (inactive) | > 100 µM | > 100 µM (inactive) | > 100 µM (inactive) | > 100 µM (inactive) | > 100 µM (inactive) | > 100 µM (inactive) | > 100 µM (inactive) | > 100 µM (inactive) | > 100 µM (inactive) | > 100 µM (inactive) | > 100 µM (inactive) | > 100 µM (inactive) | > 100 µM (inactive) | 80.7 µM (inactive) | > 100 µM (inactive) |  |
| O=NN(CCF)C(=O)NC1CCSCC1 | > 100 µM (inactive) | > 100 µM (inactive) | > 100 µM (inactive) | > 100 µM | > 100 µM (inactive) | > 100 µM (inactive) | > 100 µM (inactive) | > 100 µM (inactive) | > 100 µM (inactive) | > 100 µM (inactive) | > 100 µM (inactive) | > 100 µM (inactive) | > 100 µM (inactive) | > 100 µM (inactive) |  | > 100 µM (inactive) | > 100 µM (inactive) |  |  |
| Cc1ccc(C2=C(c3ccccc3)C(Br)(c3ccc(C)cc3)C(c3ccccc3)=C2c2ccc(C)cc2)cc1 | > 100 µM (inactive) | > 100 µM (inactive) | > 100 µM (inactive) | > 100 µM | > 100 µM (inactive) |  | > 100 µM (inactive) | > 100 µM (inactive) | > 100 µM (inactive) | > 100 µM (inactive) | > 100 µM (inactive) | > 100 µM (inactive) | > 100 µM (inactive) |  | > 100 µM (inactive) | > 100 µM (inactive) | > 100 µM (inactive) | > 100 µM (inactive) |  |
| CC(=O)O[C@H]1CC[C@@]2(C)C(=CC[C@@H]3C2CC[C@]2(C)C(=O)NC(=O)CC32)C1 (some centres undefined) | > 100 µM (inactive) | > 63.1 µM (inactive) | 40.3 µM (inactive) | 68.4 µM | > 100 µM (inactive) | 97.5 µM (inactive) | > 100 µM (inactive) | 53.5 µM (inactive) | > 100 µM (inactive) | > 100 µM (inactive) | > 100 µM (inactive) | > 100 µM (inactive) | > 100 µM (inactive) | > 100 µM (inactive) | > 100 µM (inactive) | > 100 µM (inactive) | > 100 µM (inactive) | > 100 µM (inactive) |  |
| COC1=CC(=O)c2ccccc2C1(CCC=C(C)C)C1=NC(C)(C)CO1 (centres undefined) |  | 23.7 µM (inactive) |  | 61.1 µM | > 100 µM (inactive) | 81.8 µM (inactive) | 51.6 µM (inactive) | > 100 µM (inactive) | 55.5 µM (inactive) | > 100 µM (inactive) | 48.4 µM (inactive) | 94.6 µM (inactive) | 70.8 µM (inactive) | 28.6 µM (inactive) | 71.8 µM (inactive) | 31.7 µM (inactive) | 84.9 µM (inactive) | > 100 µM (inactive) | 40.3 µM (inactive) |
| CC(C(=O)C(C)O[Si](c1ccccc1)(c1ccccc1)C(C)(C)C)=P(c1ccccc1)(c1ccccc1)c1ccccc1 (centres undefined) | 4.28 µM (inactive) | 1.91 µM (inactive) | 3.29 µM (inactive) | 5.64 µM |  | 3.08 µM (inactive) | 3.3 µM (inactive) |  | 3.33 µM (inactive) | 3.69 µM (inactive) | 2.98 µM (inactive) | 3.77 µM (inactive) | 3.82 µM (inactive) | 5.28 µM (inactive) | 12.9 µM (inactive) | 2.95 µM (inactive) | 3.96 µM (inactive) | 4.76 µM (inactive) |  |
| CC1(C)c2ccccc2C(C)(C)C(C(=O)Nc2ccccc2)C1C(=O)O (centres undefined) | > 100 µM (inactive) | > 100 µM (inactive) | > 100 µM (inactive) |  | > 100 µM (inactive) | > 100 µM (inactive) | > 100 µM (inactive) | > 100 µM (inactive) | > 100 µM (inactive) |  | 95.1 µM (inactive) | > 100 µM (inactive) | > 100 µM (inactive) | > 100 µM (inactive) | > 100 µM (inactive) | > 100 µM (inactive) | > 100 µM (inactive) | > 100 µM (inactive) |  |
| CCC1=CCN(c2cc(C)ccn2)OC1c1ccc(OC)cc1 (centres undefined) |  | 22.5 µM (inactive) | 30.1 µM (inactive) | 27.3 µM | 45.1 µM (inactive) | 21.6 µM (inactive) | 35.2 µM (inactive) | 24.1 µM (inactive) | 22.2 µM (inactive) | 31.7 µM (inactive) | 21.2 µM (inactive) | 26 µM (inactive) | 32.8 µM (inactive) | 25.6 µM (inactive) | 40.6 µM (inactive) | 26.9 µM (inactive) | 46.1 µM (inactive) |  | 25.5 µM (inactive) |
| Cc1cc(C(C)(C)C)cc(Cc2cc(C(C)(C)C)cc(Cc3cc(C(C)(C)C)cc(C)c3O)c2O)c1O | 19.5 µM (inactive) | 3.71 µM (inactive) | 7.73 µM (inactive) | 11.9 µM | 2.89 µM (inactive) | 11.7 µM (inactive) | 5.86 µM (inactive) |  | 16 µM (inactive) | 10.1 µM (inactive) | 3.13 µM (inactive) | 7.28 µM (inactive) | 5.5 µM (inactive) | 13.2 µM (inactive) | 10.8 µM (inactive) | 3.04 µM (inactive) | 13 µM (inactive) | 16.3 µM (inactive) |  |
| CCOC(=O)C1=C(Nc2ccccc2)OC/C1=N\NC(=O)Cc1ccccc1 | > 50 µM (inactive) | > 50 µM (inactive) | > 50 µM (inactive) |  | > 50 µM (inactive) | > 50 µM (inactive) | > 50 µM (inactive) | > 50 µM (inactive) | > 50 µM (inactive) | > 50 µM (inactive) | > 50 µM (inactive) | > 50 µM (inactive) | > 50 µM (inactive) | > 50 µM (inactive) | > 50 µM (inactive) | > 50 µM (inactive) | > 50 µM (inactive) | > 50 µM (inactive) |  |
| CC(C)(C)C1=NO[C@H]2[C@@H](NC(=O)c3ccccc3)CC[C@@H]12 |  | > 100 µM (inactive) | > 100 µM (inactive) | > 100 µM | > 100 µM (inactive) | > 100 µM (inactive) | > 100 µM (inactive) | > 100 µM (inactive) | > 100 µM (inactive) | > 100 µM (inactive) | > 100 µM (inactive) | > 100 µM (inactive) | > 100 µM (inactive) | > 100 µM (inactive) |  | > 100 µM (inactive) | > 100 µM (inactive) | > 100 µM (inactive) | > 100 µM (inactive) |
| CSc1nc(NC(=O)O)c(N(C(C)=O)C(=O)O)c(=O)n1C | > 100 µM (inactive) | > 100 µM (inactive) | > 100 µM (inactive) | > 100 µM | > 100 µM (inactive) | > 100 µM (inactive) | > 100 µM (inactive) | > 100 µM (inactive) | > 100 µM (inactive) | > 100 µM (inactive) | > 100 µM (inactive) | > 100 µM (inactive) | > 100 µM (inactive) | > 100 µM (inactive) | > 100 µM (inactive) | > 100 µM (inactive) | > 100 µM (inactive) |  |  |
